According to ChEMBL document CHEMBL4813985, “Lead optimization generates selenium-containing miconazole CYP51 inhibitors with improved pharmacological profile for the treatment of fungal infections” (Eur J Med Chem, 2021):
Values after ≈ are worked out from the molar mass of the structure shown. Active and inactive are the calls of the source. The rule behind the calls is not given here.

What was measured:
Cryptococcus neoformans = test: Antifungal activity against Cryptococcus neoformans CMGCC2.3161 measured after 72 hrs by broth microdilution assay; type: functional
Candida albicans [1] = test: Antifungal activity against fluconazole-resistant Candida albicans 901 assessed as inhibition of microbial growth after 24 hrs by broth microdilution method; type: functional
Candida albicans [2] = test: Antifungal activity against Candida albicans ATCC SC5314 measured after 24 hrs by broth microdilution assay; type: functional
Candida albicans [3] = test: Potency index, ratio of miconazole MIC to test compound MIC for Candida albicans CPCC400616 measured after 24 hrs by broth microdilution assay; type: functional
[Candida] zeylanoides = Antifungal activity against Candida zeylanoides CMGCC2.3739 measured after 24 hrs by broth microdilution assay; type: functional; conditions: Dujonia zeylanoides
Candida albicans [4] = test: Antifungal activity against fluconazole-resistant Candida albicans CaR assessed as inhibition of microbial growth after 24 hrs by broth microdilution method; type: functional
Candida albicans [5] = test: Antifungal activity against fluconazole-resistant Candida albicans 632 assessed as inhibition of microbial growth after 24 hrs by broth microdilution method; type: functional
Nakaseomyces glabratus = test: Antifungal activity against Candida glabrata measured after 24 hrs by broth microdilution assay; type: functional
Candida albicans [6] = test: Antifungal activity against Candida albicans CPCC400616 measured after 24 hrs by broth microdilution assay; type: functional
Candida parapsilosis = test: Antifungal activity against Candida parapsilosis ATCC 22019 measured after 24 hrs by broth microdilution assay; type: functional; conditions: Lodderomyces parapsilosis
Candida albicans [7] = test: Antifungal activity against fluconazole-resistant Candida albicans 17# assessed as inhibition of microbial growth after 24 hrs by broth microdilution method; type: functional
Candida albicans [8] = test: Antifungal activity against fluconazole-resistant Candida albicans 904 assessed as inhibition of microbial growth after 24 hrs by broth microdilution method; type: functional
Pichia kudriavzevii = test: Antifungal activity against Candida krusei AS2.1045 measured after 24 hrs by broth microdilution assay; type: functional
Aspergillus fumigatus = test: Antifungal activity against Aspergillus fumigatus CMGCC3.7795 measured after 72 hrs by broth microdilution assay; type: functional
Candida albicans [9] = test: Potency index, ratio of fluconazole MIC to test compound MIC for Candida albicans CPCC400616 measured after 24 hrs by broth microdilution assay; type: functional
[10] = biological target: T1, Lanosterol 14-alpha demethylase (Candida albicans (strain SC5314 / ATCC MYA-2876) (Yeast), UniProt P10613); test: Inhibition of CYP51 in Candida albicans ATCC SC5314 assessed as ergosterol level at […] ug/ml after 16 hrs by GC-MS analysis (reference value: 98.3%); parameters: scale not given: the % may be the effect or the level left; conditions: candida albicans sc5314, 16 h, dose 0.125 µg/ml
[11] = biological target: T1, Lanosterol 14-alpha demethylase; test: Inhibition of CYP51 in Candida albicans ATCC SC5314 assessed as Obtusifoliol level at 2 ug/ml after 16 hrs by GC-MS analysis (reference value: 0%); parameters: scale not given: the % may be the effect or the level left; conditions: candida albicans sc5314, 16 h, at 2 µg/mL
Candida albicans [12] = test: Antifungal activity against Candida albicans ATCC SC5314 infected in mouse model of candidiasis assessed as reduction in kidney fungal burden at 0.6 mg/kg/day, ip dosed at 2 hrs post infection and dosed for 4 days; type: functional, organism-based; conditions: time 4.0 day
[13] = biological target: T1, Lanosterol 14-alpha demethylase; test: Inhibition of CYP51 in Candida albicans ATCC SC5314 assessed as ergosterol level at 8 ug/ml after 16 hrs by GC-MS analysis (reference value: 98.3%); parameters: scale not given: the % may be the effect or the level left; conditions: candida albicans sc5314, 16 h, at 8 µg/mL
[14] = biological target: T1, Lanosterol 14-alpha demethylase; test: Inhibition of CYP51 in Candida albicans ATCC SC5314 assessed as lanosterol level at 0.03125 ug/ml after 16 hrs by GC-MS analysis (reference value: 1.7%); parameters: scale not given: the % may be the effect or the level left; conditions: candida albicans sc5314, 16 h, at 0.03125 µg/mL
[15] = biological target: T1, Lanosterol 14-alpha demethylase; test: Inhibition of CYP51 in Candida albicans ATCC SC5314 assessed as Obtusifoliol level at 0.5 ug/ml after 16 hrs by GC-MS analysis (reference value: 0%); parameters: scale not given: the % may be the effect or the level left; conditions: candida albicans sc5314, 16 h, at 0.5 µg/mL
[16] = biological target: T1, Lanosterol 14-alpha demethylase; test: Inhibition of CYP51 in Candida albicans ATCC SC5314 assessed as Eburicol level at 0.03125 ug/ml after 16 hrs by GC-MS analysis (reference value: 0%); parameters: scale not given: the % may be the effect or the level left; conditions: candida albicans sc5314, 16 h, at 0.03125 µg/mL
[17] = biological target: T1, Lanosterol 14-alpha demethylase; test: Inhibition of CYP51 in Candida albicans ATCC SC5314 assessed as Obtusifoliol level at 8 ug/ml after 16 hrs by GC-MS analysis (reference value: 0%); parameters: scale not given: the % may be the effect or the level left; conditions: candida albicans sc5314, 16 h, at 8 µg/mL
[18] = biological target: T1, Lanosterol 14-alpha demethylase; test: Inhibition of CYP51 in Candida albicans ATCC SC5314 assessed as Obtusifoliol level at […] ug/ml after 16 hrs by GC-MS analysis (reference value: 0%); parameters: scale not given: the % may be the effect or the level left; conditions: candida albicans sc5314, 16 h, dose 0.125 µg/ml
[19] = biological target: T1, Lanosterol 14-alpha demethylase; test: Inhibition of CYP51 in Candida albicans ATCC SC5314 assessed as ergosterol level at 0.5 ug/ml after 16 hrs by GC-MS analysis (reference value: 98.3%); parameters: scale not given: the % may be the effect or the level left; conditions: candida albicans sc5314, 16 h, at 0.5 µg/mL
[20] = biological target: T1, Lanosterol 14-alpha demethylase; test: Inhibition of CYP51 in Candida albicans ATCC SC5314 assessed as Eburicol level at 0.5 ug/ml after 16 hrs by GC-MS analysis (reference value: 0%); parameters: scale not given: the % may be the effect or the level left; conditions: candida albicans sc5314, 16 h, at 0.5 µg/mL
[21] = biological target: T1, Lanosterol 14-alpha demethylase; test: Inhibition of CYP51 in Candida albicans ATCC SC5314 assessed as ergosterol level at 0.03125 ug/ml after 16 hrs by GC-MS analysis (reference value: 98.3%); parameters: scale not given: the % may be the effect or the level left; conditions: candida albicans sc5314, 16 h, at 0.03125 µg/mL
[22] = biological target: T1, Lanosterol 14-alpha demethylase; test: Inhibition of CYP51 in Candida albicans ATCC SC5314 assessed as lanosterol level at 0.5 ug/ml after 16 hrs by GC-MS analysis (reference value: 1.7%); parameters: scale not given: the % may be the effect or the level left; conditions: candida albicans sc5314, 16 h, at 0.5 µg/mL
[23] = biological target: T1, Lanosterol 14-alpha demethylase; test: Inhibition of CYP51 in Candida albicans ATCC SC5314 assessed as Obtusifoliol level at 0.03125 ug/ml after 16 hrs by GC-MS analysis (reference value: 0%); parameters: scale not given: the % may be the effect or the level left; conditions: candida albicans sc5314, 16 h, at 0.03125 µg/mL
[24] = biological target: T1, Lanosterol 14-alpha demethylase; test: Inhibition of CYP51 in Candida albicans ATCC SC5314 assessed as ergosterol level at 2 ug/ml after 16 hrs by GC-MS analysis (reference value: 98.3%); parameters: scale not given: the % may be the effect or the level left; conditions: candida albicans sc5314, 16 h, at 2 µg/mL
[25] = biological target: T1, Lanosterol 14-alpha demethylase; test: Inhibition of CYP51 in Candida albicans ATCC SC5314 assessed as lanosterol level at 8 ug/ml after 16 hrs by GC-MS analysis (reference value: 1.7%); parameters: scale not given: the % may be the effect or the level left; conditions: candida albicans sc5314, 16 h, at 8 µg/mL
[26] = biological target: T1, Lanosterol 14-alpha demethylase; test: Inhibition of CYP51 in Candida albicans ATCC SC5314 assessed as Eburicol level at 8 ug/ml after 16 hrs by GC-MS analysis (reference value: 0%); parameters: scale not given: the % may be the effect or the level left; conditions: candida albicans sc5314, 16 h, at 8 µg/mL
Candida albicans [27] = test: Anti-biofilm activity in Candida albicans CPCC400616 assessed as inhibition of biofilm formation incubated for 24 hrs with 24 hrs precultured fungal suspension by XTT assay; type: functional
[28] = biological target: T1, Lanosterol 14-alpha demethylase; test: Inhibition of CYP51 in Candida albicans ATCC SC5314 assessed as Eburicol level at 2 ug/ml after 16 hrs by GC-MS analysis (reference value: 0%); parameters: scale not given: the % may be the effect or the level left; conditions: candida albicans sc5314, 16 h, at 2 µg/mL
[29] = biological target: T1, Lanosterol 14-alpha demethylase; test: Inhibition of CYP51 in Candida albicans ATCC SC5314 assessed as lanosterol level at […] ug/ml after 16 hrs by GC-MS analysis (reference value: 1.7%); parameters: scale not given: the % may be the effect or the level left; conditions: candida albicans sc5314, 16 h, dose 0.125 µg/ml
[30] = biological target: T1, Lanosterol 14-alpha demethylase; test: Inhibition of CYP51 in Candida albicans ATCC SC5314 assessed as lanosterol level at 2 ug/ml after 16 hrs by GC-MS analysis (reference value: 1.7%); parameters: scale not given: the % may be the effect or the level left; conditions: candida albicans sc5314, 16 h, at 2 µg/mL
[31] = biological target: T1, Lanosterol 14-alpha demethylase; test: Inhibition of CYP51 in Candida albicans ATCC SC5314 assessed as Eburicol level at […] ug/ml after 16 hrs by GC-MS analysis (reference value: 0%); parameters: scale not given: the % may be the effect or the level left; conditions: candida albicans sc5314, 16 h, dose 0.125 µg/ml

T1 sequence (P10613 whole entry): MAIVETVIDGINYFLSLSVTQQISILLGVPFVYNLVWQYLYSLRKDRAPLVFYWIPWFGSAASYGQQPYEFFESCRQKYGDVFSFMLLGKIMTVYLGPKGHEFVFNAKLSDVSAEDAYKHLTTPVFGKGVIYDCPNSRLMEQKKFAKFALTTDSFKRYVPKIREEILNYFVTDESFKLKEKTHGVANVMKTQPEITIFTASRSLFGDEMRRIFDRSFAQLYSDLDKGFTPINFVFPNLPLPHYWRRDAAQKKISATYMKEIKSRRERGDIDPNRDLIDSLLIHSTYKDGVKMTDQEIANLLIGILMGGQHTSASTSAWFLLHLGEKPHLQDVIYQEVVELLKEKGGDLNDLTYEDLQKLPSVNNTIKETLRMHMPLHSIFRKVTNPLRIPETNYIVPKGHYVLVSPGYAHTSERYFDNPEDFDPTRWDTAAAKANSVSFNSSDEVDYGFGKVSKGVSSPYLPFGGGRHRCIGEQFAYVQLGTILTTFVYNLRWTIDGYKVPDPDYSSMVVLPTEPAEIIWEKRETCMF

Cc1cccc(C)c1[Se]C(Cn1ccnc1)c1ccc(F)cc1F (stereo not given)
MIC (Cryptococcus neoformans): 0.25 µg/mL (≈ 0.639 µM)
MIC (Candida albicans [1]): 2 µg/mL
MIC (Candida albicans [2]): 0.02 µg/mL (≈ 0.0511 µM)
Ratio (Candida albicans [3]): 8
MIC ([Candida] zeylanoides): 0.13 µg/mL (≈ 0.332 µM)
MIC (Candida albicans [4]): 8 µg/mL
MIC (Candida albicans [5]): 1 µg/mL
MIC (Nakaseomyces glabratus): 0.5 µg/mL (≈ 1.28 µM)
MIC (Candida albicans [6]): 0.03 µg/mL (≈ 0.0767 µM)
MIC (Candida parapsilosis): 0.06 µg/mL (≈ 0.153 µM)
MIC (Candida albicans [7]): 0.25 µg/mL
MIC (Candida albicans [8]): 2 µg/mL
MIC (Pichia kudriavzevii): 0.02 µg/mL (≈ 0.0511 µM)
MIC (Aspergillus fumigatus): 8 µg/mL (≈ 20.4 µM)
Ratio (Candida albicans [9]): 8

OC(Cn1cncn1)(Cn1cncn1)c1ccc(F)cc1F [FLUCONAZOLE]
Activity [10]: 80.8%
Activity [11]: 9.5%
Activity (Candida albicans [12]): Active
MIC (Cryptococcus neoformans): 4 µg/mL (≈ 13.1 µM)
Activity [13]: 4.2%
Activity [14]: 9.8%
MIC (Candida albicans [1]): > 128 µg/mL
Activity [15]: 2.9%
Activity [16]: 2.9%
Activity [17]: 11.4%
Activity [18]: 1.6%
Activity [19]: 78.9%
Activity [20]: 6.7%
Activity [21]: 86.34%
MIC (Candida albicans [2]): 1 µg/mL (≈ 3.27 µM)
Activity [22]: 11.6%
Activity [23]: 1%
MIC ([Candida] zeylanoides): 4 µg/mL (≈ 13.1 µM)
MIC (Candida albicans [4]): > 128 µg/mL
MIC (Candida albicans [5]): > 128 µg/mL
Activity [24]: 19.8%
MIC (Nakaseomyces glabratus): 32 µg/mL (≈ 104 µM)
MIC (Candida albicans [6]): 4 µg/mL (≈ 13.1 µM)
Activity [25]: 14.1%
MIC (Candida parapsilosis): 4 µg/mL (≈ 13.1 µM)
MIC (Candida albicans [7]): 128 µg/mL
Activity [26]: 70.3%
MIC (Candida albicans [8]): > 128 µg/mL
MIC (Pichia kudriavzevii): 32 µg/mL (≈ 104 µM)
MIC (Candida albicans [27]): > 1020 µg/mL
Activity [28]: 63.5%
MIC (Aspergillus fumigatus): > 128 µg/mL
Activity [29]: 12.4%
Activity [30]: 7.2%
Activity [31]: 5.3%
